In this experiment the target is T1, GacB (MxGacB, MXAN_2643), Hypr GGDEF enzyme (Myxococcus xanthus, UniProt Q1D911).
T1 sequence (Q1D911 1-364): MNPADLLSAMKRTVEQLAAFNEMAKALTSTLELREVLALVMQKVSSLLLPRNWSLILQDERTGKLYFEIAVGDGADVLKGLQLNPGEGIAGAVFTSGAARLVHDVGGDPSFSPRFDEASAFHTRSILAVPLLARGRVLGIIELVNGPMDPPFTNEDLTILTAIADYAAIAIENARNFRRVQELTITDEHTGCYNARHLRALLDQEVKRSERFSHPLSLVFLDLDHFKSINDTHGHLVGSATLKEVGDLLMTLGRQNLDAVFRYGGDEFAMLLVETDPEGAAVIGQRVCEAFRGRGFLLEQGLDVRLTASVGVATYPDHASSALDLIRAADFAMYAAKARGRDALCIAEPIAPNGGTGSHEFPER
In words: LC-MS inhibition assay. The experiment is classed as biochemical.

`Nc1nc2c(ncn2[C@@H]2O[C@@H]3CO[P@](=O)(O)O[C@H]4[C@@H](O)[C@H](n5cnc6c(=O)[nH]c(N)nc65)O[C@@H]4CO[P@](=O)(O)O[C@H]3[C@H]2O)c(=O)[nH]1` [cdiG, cyclic di-GMP] gave an IC50 of 17.8 µM.

The record behind these values is publication PMC7209772 (Molecular microbiology, 2019).
